Here are results for 4 molecules from US10704056B2, “Constitutively active ABA receptor mutants” (The Regents of the University of California, priority 2011, dated 2020).

The target in assay [1] is T1, PYR1 (Arabidopsis thaliana, UniProt O49686).
T1 construct: expressed in transfected cells; host or cells: S. cerevisiae strain Y190
T1 sequence (O49686 1-191): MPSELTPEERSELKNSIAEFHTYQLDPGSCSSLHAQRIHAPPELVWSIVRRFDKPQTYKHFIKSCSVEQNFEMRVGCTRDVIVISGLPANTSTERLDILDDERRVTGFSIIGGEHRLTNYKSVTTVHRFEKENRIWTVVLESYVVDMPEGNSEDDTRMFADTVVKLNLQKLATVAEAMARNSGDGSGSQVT
T1 sequence (Q9CAJ0 23-511 partner): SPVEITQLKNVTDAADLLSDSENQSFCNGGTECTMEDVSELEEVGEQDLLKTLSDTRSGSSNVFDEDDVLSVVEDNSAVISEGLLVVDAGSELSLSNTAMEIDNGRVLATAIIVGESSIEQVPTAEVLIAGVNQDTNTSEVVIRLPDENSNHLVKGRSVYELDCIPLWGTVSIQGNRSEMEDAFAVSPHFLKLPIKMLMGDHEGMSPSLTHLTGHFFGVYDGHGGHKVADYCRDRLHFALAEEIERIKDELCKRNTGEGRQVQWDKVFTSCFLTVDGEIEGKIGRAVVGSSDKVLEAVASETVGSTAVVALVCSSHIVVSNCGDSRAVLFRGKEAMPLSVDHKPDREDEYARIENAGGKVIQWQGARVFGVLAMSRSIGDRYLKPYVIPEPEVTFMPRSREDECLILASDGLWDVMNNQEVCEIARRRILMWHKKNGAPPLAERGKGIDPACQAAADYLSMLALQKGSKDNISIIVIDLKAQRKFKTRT
As to the kind of experiment: Yeast two-hybrid wild-type PYR1-HAB1 interaction with added ABA. The class given is cell-based. Particulars: wild-type PYR1, 10 μM ABA. How it is done: 29 of 741 PYR1 mutants constructed, located in 10 different residues, increase the interaction between PYR1 and HAB1 in the absence of ABA, as measured using the yeast two hybrid assay (upper left panel). […] Each graph includes control wild-type PYR1 protein tested in the absence (diamonds) and presence (squares) of 10 μM ABA. Specific mutant proteins (triangles) were tested in the absence of ABA. […] Plotted in each graph is PP2C activity, expressed as % of control, which is the PP2C activity measured in the absence of ABA or receptor protein.
To define sites that can be mutated to improve interactions between PYR/PYL receptors and PP2Cs, we conducted saturation mutagenesis on 39 residues in PYR1 that normally contact ABA (i.e., are within the ligand-binding pocket of PYR1) and/or PP2Cs (i.e., are within the PP2C binding interface). All 741 single-mutant variants possible at these functionally critical locations were constructed and then assayed for PP2C interactions using a yeast two-hybrid based assay. Saturation mutagenesis is a method that involves the construction of all possible amino acid variants at a given site (i.e., the generation of all 19 substitution mutants per site). […]

The next assay concerns the target T2, PYL1 (Arabidopsis thaliana, UniProt Q8VZS8).
T2 sequence (Q8VZS8 1-221): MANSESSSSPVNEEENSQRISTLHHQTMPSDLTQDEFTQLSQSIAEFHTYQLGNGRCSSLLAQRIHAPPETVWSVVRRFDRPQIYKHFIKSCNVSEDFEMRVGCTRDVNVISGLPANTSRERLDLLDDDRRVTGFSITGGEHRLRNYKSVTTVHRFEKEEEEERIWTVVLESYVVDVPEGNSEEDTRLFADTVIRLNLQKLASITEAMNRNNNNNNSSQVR
Conditions: cited from earlier work.

The target in a further assay is T3, PYL2 (Arabidopsis thaliana, UniProt O80992).
T3 sequence (O80992 1-190): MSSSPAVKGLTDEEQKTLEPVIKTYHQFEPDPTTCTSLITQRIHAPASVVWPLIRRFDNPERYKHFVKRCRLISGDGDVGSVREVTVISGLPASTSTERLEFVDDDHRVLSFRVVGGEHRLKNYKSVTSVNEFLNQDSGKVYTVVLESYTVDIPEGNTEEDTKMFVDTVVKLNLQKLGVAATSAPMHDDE
Particulars: cited from earlier work.

In assay [2] the target is T4, PYR1 (Arabidopsis thaliana, UniProt O49686).
T4 sequence (O49686 1-191): T1 sequence (O49686 1-191)
Conditions: cited from earlier work.

In another assay the target is T5, PYL5 (Arabidopsis thaliana, UniProt Q9FLB1).
T5 sequence (Q9FLB1 1-203): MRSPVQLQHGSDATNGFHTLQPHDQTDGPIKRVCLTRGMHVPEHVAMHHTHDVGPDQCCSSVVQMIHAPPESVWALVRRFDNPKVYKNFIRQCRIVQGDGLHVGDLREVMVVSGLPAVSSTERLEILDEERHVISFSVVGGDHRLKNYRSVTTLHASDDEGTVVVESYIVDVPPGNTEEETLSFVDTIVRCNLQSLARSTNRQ
Particulars: cited from earlier work.

Assay [3] deals with ABA-responsive gene transcription. Conditions: in vivo; cited from earlier work.
The target of a further assay is T6, HAB1 (Arabidopsis thaliana, UniProt Q9CAJ0).
T6 construct: expressed in transfected cells; host or cells: S. cerevisiae strain Y190
T6 sequence (Q9CAJ0 1-511): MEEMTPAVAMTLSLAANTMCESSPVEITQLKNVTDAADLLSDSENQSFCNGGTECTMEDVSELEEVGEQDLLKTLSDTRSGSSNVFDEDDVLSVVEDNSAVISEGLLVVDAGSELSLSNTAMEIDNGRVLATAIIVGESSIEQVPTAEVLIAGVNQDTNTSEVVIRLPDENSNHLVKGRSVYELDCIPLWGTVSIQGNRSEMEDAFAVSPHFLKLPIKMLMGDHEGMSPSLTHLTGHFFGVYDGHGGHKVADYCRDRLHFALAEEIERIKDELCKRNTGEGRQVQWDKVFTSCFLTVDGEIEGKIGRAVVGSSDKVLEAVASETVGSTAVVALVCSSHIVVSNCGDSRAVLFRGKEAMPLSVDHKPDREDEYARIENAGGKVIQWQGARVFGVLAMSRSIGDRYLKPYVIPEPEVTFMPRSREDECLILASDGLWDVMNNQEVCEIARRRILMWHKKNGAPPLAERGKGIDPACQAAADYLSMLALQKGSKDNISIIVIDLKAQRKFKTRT
As to the kind of experiment: Yeast two-hybrid PYR1 mutant-HAB1 interaction assay (X-gal staining) in the absence of ABA. The class given is cell-based. Conditions: no ABA. From the text:
To define sites that can be mutated to improve interactions between PYR/PYL receptors and PP2Cs, we conducted saturation mutagenesis on 39 residues in PYR1 that normally contact ABA (i.e., are within the ligand-binding pocket of PYR1) and/or PP2Cs (i.e., are within the PP2C binding interface). All 741 single-mutant variants possible at these functionally critical locations were constructed and then assayed for PP2C interactions using a yeast two-hybrid based assay. Saturation mutagenesis is a method that involves the construction of all possible amino acid variants at a given site (i.e., the generation of all 19 substitution mutants per site). We focused mutagenesis efforts on PYR1 because it is a well-characterized member of the PYR/PYL receptor family and has extensive structural data on which to guide mutagenesis studies, although it should be noted that the sites targeted display high sequence conservation among the PYR/PYL receptors (FIG. 1). Moreover, PYR1 is well suited for functional studies because its low basal activity allows its activation status to be studied using a yeast-based two-hybrid assay in which wild-type PYR1 will only bind to the PP2C HAB1 (or other PP2Cs) when the appropriate yeast cells are grown in the presence of ABA. […]

The test system of a further assay is aba2-1 mutant seeds. Kind of assay: Germination of aba2-1 background seeds on paclobutrazol or NaCl. The format is in vivo, Arabidopsis. Particulars: 35S-driven transgene, germination 72 hours. From the text: As a further test of the ability of PYL2^CA3 to activate ABA signaling in vivo, we examined the ability of this allele to revert phenotypes caused by ABA deficiency, reasoning that effective activation of the ABA pathway should suppress phenotypes observed in the aba2 mutant. […] To test this, we examined the germination of various genotypes on paclobutrazol, an inhibitor of GA biosynthesis. Wild-type seed germination is blocked by paclobutrazol treatment but aba2 mutants germinate due to defects in ABA-induced seed dormancy. We also examined the germination of various genotypes in the presence of NaCl, which, like paclobutrazole, inhibits seed germination in an ABA- and aba2-dependent manner (Gonzalez-Guzman M. et al. (2002) Plant Cell 14(8):1833-1846; Leon-Kloosterziel K M, et al. (1996) Plant J 10 (4):655-661). […] Thus, expression of PYL2^CA3 in developing seeds is sufficient to activate an ABA-dependent physiological process despite the depleted ABA levels present in the aba2 background.
Germination tests on paclobutrazol (Wako Chemicals, Japan) and NaCl were conducted as following. Columbia, aba2-1, aba2-1; 35S::GFP-PYL2 and aba2-1; 35S::GFP-PYL2″^3 seeds were surface sterilized and plated onto ⅓ MS agar media containing 25, 50 or 100 μM paclobutrazol or 0, 50, 200, 250 mM NaCl. Control wells contained ⅓ MS agar and 0.1% DMSO, the carrier solvent for paclobutrazol. The seeds were stratified for four days in darkness and then transferred to continuous illumination at room temperature (23° C.). Germination was assayed after 72 hours; seeds showing radicals at least ½ seed length or greater were scored as positive. Each experiment was performed in triplicate; experiments were performed on seeds that were ˜6-months post-harvest.

The test system of another assay is Columbia seeds. As to the kind of experiment: Seed dormancy / germination assay of 35S-driven transgenic lines, stratified vs unstratified. Particulars: 35S-driven overexpression in wild-type Columbia background. The format is in vivo, Arabidopsis. The protocol: To investigate the effects of the PYL2^CA3 allele, we performed a number of physiological assays on wild-type and aba2-1 genotypes. Columbia (Col), 35S::PYL2, and 35S::PYL2^CA3 seed samples were divided into two portions; one portion was stratified on ⅓ MS plates for 6 days at 4° C. and the second portion was plated six days later ⅓ MS plates. Both samples were the transferred to room temperature (23° C.) and incubated in darkness. […] Each experiment was performed in triplicate and each point plotted represents the average of tests conducted using 40 to 70 seeds. […] Thus, overexpression of PYL2^CA3 activates the ABA-regulated seed dormancy pathway.
In order to assay dormancy of seeds for Columbia, 35S::GFP-PYL2, and 35S::GFP-PYL2^CA3 were divided into two portions and surface sterilized using chlorine gas (prepared in situ using bleach and HCl). One portion was stratified on ⅓ MS agar plates for 6 days at 4° C. in darkness and the second portion, which was maintained at room temperature, was seeded six days later on the ⅓ MS agar plates; both samples were transferred to a 23° C. light-tight growth chamber and germination scored at 24 hour periods. The homozygous 35S::GFP-PYL2 and 35S::GFP-[…] seeds used in these experiments were ˜5- and ˜6-months post-harvest respectively at the time of the experiment shown in FIG. 12.

Take `CC1=CC(=O)CC(C)(C)[C@@]1(O)/C=C/C(C)=C\C(=O)O` [ABA, Abscisic acid]: on PYR1 [1], the “interaction between PYR1 and HAB1” value is given as “promotes a strong interaction”.
Turning to `O=S(=O)(NCc1ccccn1)c1ccc(Br)c2ccccc12` [pyrabactin], the “agonist activity on PYL1” value on PYL1 is “strong agonist activity”. On PYL2, the “activity on PYL2” value is on record as “weak partial-agonist/antagonist activity”. Further, the “agonist activity on PYR1” value on PYR1 [2] is on record as “strong agonist activity”. For the same molecule, the “activity on PYL5” value on PYL5 was “weak partial-agonist/antagonist activity”. For the same molecule, the “ABA-responsive gene transcription in seeds” value in [3] is on record as “essentially activates the full complement of ABA-responsive gene transcription in seeds”.
Take “PYR1: wild-type Arabidopsis ABA receptor PYR1 (SEQ ID NO:1)”: the “PYR1-HAB1 interaction in the absence of added ABA” value in the assay with HAB1 is “does not bind HAB1”.

B1: PYL2: wild-type ABA receptor PYL2 (SEQ ID NO:3), overexpressed as control (protein, listed as Arabidopsis thaliana)
chain: T3 sequence (O80992 1-190)
modifications: thale cress PYR/PYL receptor, abscisic acid receptor PYL2, PYR1-like protein 2 (PYL2), ABI1-binding protein 6 (ABIP6), regulatory components of ABA receptor 14 (RCAR14), Bet v I allergen family protein, At2g26040, T19L18.15
In the case of B1, in the assay on aba2-1 mutant seeds, the “NaCl resistance of aba2 mutant seed germination” value is reported as “unable to suppress” and the “paclobutrazol resistance of aba2 mutant seed germination” value was “unable to suppress”. For the same molecule, the “seed hyperdormancy (stratification dependent germination)” value in the assay on Columbia seeds was “not”.
